US6703362B1, “Random peptides that bind to gastro-intestinal tract (GIT) transport receptors and related methods” (Cytogen Corporation, priority 1997, dated 2004)
Peptide text beside a SMILES is read from it. * marks the point of attachment. Dansyl = CN(C)c1cccc2c(S(=O)(=O)*)cccc12

What was measured:
[1] = tested on: fixed Caco-2 cells; test: Inhibition of GST-peptide fusion binding to fixed Caco-2 cells by synthetic peptides; settings: peptide from 100 μg/ml serially diluted; GST fusion 10 μg
Description: Caco-2 cells were fixed, treated with phenylhydrazine and blocked as described above. […] GST-PAX2 binding was inhibited by ZElan032, ZElan033, and ZElan035.

[2] = tested on: P100 membrane fractions derived from Caco-2 cells; test: Dansylated peptide ELISA: relative binding of PAX2 and HAX42 peptides to P100 (ratio to ZElan021); settings: ratio to ZElan021 = 1.00
Method: The peptides and proteins were analyzed by a dansylated peptide ELISA method in which 96 well plates were coated overnight at 4° C. with 100 μl/well coating protein (normally 100 μg/ml P100 membrane fraction) in 0.05M carbonate buffer pH9.6. Nonspecific binding was blocked using 200 μl/well, 2% Marvel/PBS for 2 hours at 37° C. prior to incubation with dansylated peptides. The plates were washed three times with PBS/0.05% Tween 20 and after each subsequent incubation step. […] A buffer blank control was included to ensure that background binding to plastic was not due to the antibodies used in the assay system. […] The plates were then incubated with an anti-mouse X-HRP conjugated antibody (Southern Biotech 1060-05) at a 1:10,000 dilution in blocking solution, 100 μl/well for 1 hour at room temperature. Plates were developed using 75 μl/well Bionostics TMB substrate and incubated for approximately 10 minutes. The developing reaction was stopped using Bionostics Red Stop solution (25 μl/well), and the optical density of the plates was read at 650nm.

[3] = PAX2 peptides, first 20 μg/ml column
[4] = PAX2 peptides, first 50 μg/ml column
[5] = PAX2 peptides, second 50 μg/ml column
[6] = PAX2 peptides, second 20 μg/ml column
[7] = HAX42 peptides, first 50 μg/ml column
[8] = HAX42 peptides, second 50 μg/ml column

Molecule	Binding value at 20 μg/ml [2, 3]	Binding value at 50 μg/ml [2, 4]	Binding value at 50 μg/ml [2, 5]	Binding value at 50 μg/ml (Jackson Ab) ([2]; PAX2 peptides)	Binding value at 50 μg/ml (Southern Ab) ([2]; PAX2 peptides)	other results
H-K(Dansyl)SRANTDGRKSRYSSPRRNSSTEPRLSPNSVHARYPSTDHD-NH2 [ZElan038, reference compound]	–	–	–	–	–	inhibition of GST-HAX42 binding [1]: inhibited
H-K(Dansyl)SEANLDGRKSRYSSPRRNSSTRPRTSPNSVHARYPSTDHD-NH2 [ZElan026, reference compound]	–	–	–	–	–	inhibition of GST-HAX42 binding [1]: inhibited
H-K(Dansyl)SARDSGPAEDGSRAVRLNGVENANTRKSSRSNPRGRRHPGG-NH2 [ZElan024]	–	–	–	–	–	inhibition of GST-P31 binding [1]: inhibited
CC(C)C[C@H](NC(=O)[C@H](CCCNC(=N)N)NC(=O)[C@H](CCCNC(=N)N)NC(=O)[C@H](CC(N)=O)NC(=O)[C@H](Cc1c[nH]cn1)NC(=O)[C@H](CO)NC(=O)[C@H](CO)NC(=O)[C@@H](N)CCCCNS(=O)(=O)c1cccc2c(N(C)C)cccc12)C(=O)N[C@@H](CCCNC(=N)N)C(=O)N[C@H](C(=O)N[C@@H](C)C(N)=O)[C@@H](C)O [ZElan082] (H-K(Dansyl)SSHNRRLRTA-NH2)	0.00	0.92	0.40	–	–	–
CC(C)C[C@H](NC(=O)[C@H](CCCNC(=N)N)NC(=O)[C@H](CCCNC(=N)N)NC(=O)[C@@H](N)CCCCNS(=O)(=O)c1cccc2c(N(C)C)cccc12)C(=O)N[C@@H](CCCNC(=N)N)C(=O)N[C@H](C(=O)N[C@@H](CCCNC(=N)N)C(=O)N[C@@H](CO)C(=O)N[C@@H](CCCNC(=N)N)C(N)=O)[C@@H](C)O [ZElan057] (H-K(Dansyl)RRLRTRSR-NH2)	0.08	0.56	0.25	–	–	–
CC(C)C[C@H](NC(=O)[C@H](CCCNC(=N)N)NC(=O)[C@H](CCCNC(=N)N)NC(=O)[C@H](C)NC(=O)[C@H](Cc1c[nH]cn1)NC(=O)[C@H](CO)NC(=O)[C@H](CO)NC(=O)[C@@H](N)CCCCNS(=O)(=O)c1cccc2c(N(C)C)cccc12)C(=O)N[C@@H](CCCNC(=N)N)C(=O)N[C@H](C(=O)N[C@@H](CCCNC(=N)N)C(N)=O)[C@@H](C)O [ZElan076] (H-K(Dansyl)SSHARRLRTR-NH2)	0.08	1.00	0.41	0.60	0.42	–
CC(C)C[C@H](NC(=O)[C@H](CCCNC(=N)N)NC(=O)[C@H](CCCNC(=N)N)NC(=O)[C@H](CC(N)=O)NC(=O)[C@H](Cc1c[nH]cn1)NC(=O)[C@H](CO)NC(=O)[C@H](C)NC(=O)[C@@H](N)CCCCNS(=O)(=O)c1cccc2c(N(C)C)cccc12)C(=O)N[C@@H](CCCNC(=N)N)C(=O)N[C@H](C(=O)N[C@@H](CCCNC(=N)N)C(N)=O)[C@@H](C)O [ZElan073] (H-K(Dansyl)ASHNRRLRTR-NH2)	0.07	−0.11	0.49	0.66	0.49	–
C[C@H](NC(=O)[C@H](CC(N)=O)NC(=O)[C@@H](NC(=O)[C@@H](N)CCCCNS(=O)(=O)c1cccc2c(N(C)C)cccc12)[C@@H](C)O)C(=O)N[C@@H](CCCCN)C(=O)N[C@@H](Cc1c[nH]cn1)C(=O)N[C@@H](CO)C(=O)N[C@@H](CO)C(=O)N[C@@H](Cc1c[nH]cn1)C(=O)N[C@@H](CC(N)=O)C(N)=O [ZElan055] (H-K(Dansyl)TNAKHSSHN-NH2)	0.99	1.10	0.59	–	–	Binding value at 20 μg/ml [2, 6]: 0.73
CN(C)c1cccc2c(S(=O)(=O)NCCCC[C@H](N)C(=O)N[C@@H](CC(N)=O)C(=O)N[C@@H](CCCNC(=N)N)C(=O)N[C@@H](CCCNC(=N)N)C(=O)N[C@@H](CCCNC(=N)N)C(=O)N3CCC[C@H]3C(=O)N[C@@H](CO)C(N)=O)cccc12 [ZElan067, H2N—K(dns)NRRRPS—CONH2] (H-K(Dansyl)NRRRPS-NH2)	–	–	–	–	–	Binding value at 20 μg/ml ([2]; HAX42 peptides): 0.08; Binding value at 50 μg/ml [2, 7]: 0.52; Binding value at 50 μg/ml [2, 8]: 0.40
CC(C)C[C@H](NC(=O)[C@H](CCCNC(=N)N)NC(=O)[C@H](CCCNC(=N)N)NC(=O)[C@H](CC(N)=O)NC(=O)[C@H](C)NC(=O)[C@H](CO)NC(=O)[C@H](CO)NC(=O)[C@@H](N)CCCCNS(=O)(=O)c1cccc2c(N(C)C)cccc12)C(=O)N[C@@H](CCCNC(=N)N)C(=O)N[C@H](C(=O)N[C@@H](CCCNC(=N)N)C(N)=O)[C@@H](C)O [ZElan075] (H-K(Dansyl)SSANRRLRTR-NH2)	0.13	0.52	0.38	0.47	0.32	–
CC(C)C[C@H](NC(=O)[C@H](C)NC(=O)[C@H](Cc1c[nH]cn1)NC(=O)[C@H](CC(=O)O)NC(=O)[C@H](CO)NC(=O)[C@@H](N)CCCCNS(=O)(=O)c1cccc2c(N(C)C)cccc12)C(=O)NCC(=O)N[C@H](C(=O)N[C@@H](CC(N)=O)C(=O)N[C@@H](CC(C)C)C(=O)N[C@@H](CCCNC(=N)N)C(=O)N[C@@H](CO)C(=O)N[C@@H](CC(=O)O)C(=O)N[C@@H](CC(N)=O)C(=O)N[C@@H](C)C(=O)N[C@@H](CCCCN)C(=O)N[C@@H](CCC(=O)O)C(=O)N1CCC[C@H]1C(=O)NCC(=O)N[C@@H](CC(=O)O)C(=O)N[C@@H](Cc1ccc(O)cc1)C(=O)N[C@@H](CC(N)=O)C(=O)N[C@@H](CS)C(=O)N[C@@H](CS)C(=O)NCC(=O)N[C@@H](CC(N)=O)C(=O)NCC(N)=O)[C@@H](C)O [ZElan060] (H-K(Dansyl)SDHALGTNLRSDNAKEPGDYNCCGNG-NH2)	–	–	–	–	–	Binding value at 20 μg/ml ([2]; HAX42 peptides): 0.44; Binding value at 50 μg/ml [2, 7]: 0.56; Binding value at 50 μg/ml [2, 8]: 0.43
CC(C)C[C@H](NC(=O)[C@H](CCCNC(=N)N)NC(=O)[C@H](CCCNC(=N)N)NC(=O)[C@H](CC(N)=O)NC(=O)[C@H](Cc1c[nH]cn1)NC(=O)[C@H](CO)NC(=O)[C@H](CO)NC(=O)[C@@H](N)CCCCNS(=O)(=O)c1cccc2c(N(C)C)cccc12)C(=O)N[C@@H](C)C(=O)N[C@H](C(=O)N[C@@H](CCCNC(=N)N)C(N)=O)[C@@H](C)O [ZElan080] (H-K(Dansyl)SSHNRRLATR-NH2)	0.23	0.84	0.45	0.67	0.38	–
CC(C)C[C@H](NC(=O)[C@H](C)NC(=O)[C@H](CCCNC(=N)N)NC(=O)[C@H](CC(N)=O)NC(=O)[C@H](Cc1c[nH]cn1)NC(=O)[C@H](CO)NC(=O)[C@H](CO)NC(=O)[C@@H](N)CCCCNS(=O)(=O)c1cccc2c(N(C)C)cccc12)C(=O)N[C@@H](CCCNC(=N)N)C(=O)N[C@H](C(=O)N[C@@H](CCCNC(=N)N)C(N)=O)[C@@H](C)O [ZElan078] (H-K(Dansyl)SSHNRALRTR-NH2)	0.11	0.87	0.69	0.68	0.47	–
CC(C)C[C@H](NC(=O)[C@H](CCCNC(=N)N)NC(=O)[C@H](CCCNC(=N)N)NC(=O)[C@H](CC(N)=O)NC(=O)[C@H](Cc1c[nH]cn1)NC(=O)[C@H](CO)NC(=O)[C@H](CO)NC(=O)[C@@H](N)CCCCNS(=O)(=O)c1cccc2c(N(C)C)cccc12)C(=O)N[C@@H](CCCNC(=N)N)C(=O)N[C@@H](C)C(=O)N[C@@H](CCCNC(=N)N)C(N)=O [ZElan081] (H-K(Dansyl)SSHNRRLRAR-NH2)	0.01	0.89	0.47	–	–	–
CC(C)C[C@H](NC(=O)[C@H](CCCNC(=N)N)NC(=O)[C@H](C)NC(=O)[C@H](CC(N)=O)NC(=O)[C@H](Cc1c[nH]cn1)NC(=O)[C@H](CO)NC(=O)[C@H](CO)NC(=O)[C@@H](N)CCCCNS(=O)(=O)c1cccc2c(N(C)C)cccc12)C(=O)N[C@@H](CCCNC(=N)N)C(=O)N[C@H](C(=O)N[C@@H](CCCNC(=N)N)C(N)=O)[C@@H](C)O [ZElan077] (H-K(Dansyl)SSHNARLRTR-NH2)	0.20	0.76	0.54	0.73	0.52	–
H-K(Dansyl)GRNHDVVSSNTHKSYRSPRSASYPRLSNDRTDRTEPAPSS-NH2 [ZElan083, reference compound]	0.43	1.03	0.88	–	–	Binding value at 20 μg/ml [2, 6]: 0.63
CC(C)[C@H](NC(=O)[C@H](CCCCN)NC(=O)[C@H](CCCNC(=N)N)NC(=O)[C@@H](N)CCCCNS(=O)(=O)c1cccc2c(N(C)C)cccc12)C(=O)N[C@@H](Cc1ccccc1)C(=O)N[C@@H](CC(N)=O)C(=O)N[C@@H](CCCNC(=N)N)C(=O)N[C@@H](CCCNC(=N)N)C(=O)N[C@@H](CCCNC(=N)N)C(=O)N1CCC[C@H]1C(=O)N[C@@H](CO)C(N)=O [ZElan065] (H-K(Dansyl)RKVFNRRRPS-NH2)	–	–	–	–	–	Binding value at 20 μg/ml ([2]; HAX42 peptides): 0.00; Binding value at 50 μg/ml [2, 7]: 0.54; Binding value at 50 μg/ml [2, 8]: 0.30
